Counter-ions that a name gives are not always drawn.
Columns and labels:
Format in all cases: cell-based
[1] = tested on: IL-4 production from mouse BMMC; test: Antigen-induced IL-4 production from mouse BMMC (ELISA)
Protocol: (§1) • 1. Test drugs Mizolastine and terfenadine used were synthesised according to well known method in the art. Ketotifen fumarate (hereinafter 'ketotifen') was obtained from Toa Boshoku and dexamethasone from Sigma. • 2. Animals […] female mice and Balb/c female mice were used. • 3. Preparation of bone marrow-derived mast cells (hereinafter 'BMMC') Mouse BMMC were prepared in accordance with the method of Saito et al. J. Immunol. 138: 3927-3934, 1987. That is to say, femoral bone marrow cells from female CBA/J mice were suspended to concentrations of 2-5 x 10^5/ml in RPMI 1640 medium to which 50% of WEHI-3 culture supernatant had been added (containing 10% FBS, 5 x 10^-5M 2-mercaptoethanol, 50IU/ml penicillin, […] streptomycin). • 4. Production of IL-4 and TNF-α from mouse BMMC A 1/250 volume of anti-mouse DNP-IgE monoclonal antibody (Seikagaku Kogyo, […]) was added to mouse BMMC (2 x 10^6 cells/ml) and they were further sensitised by being incubated overnight. The sensitised BMMC were washed three times with RPMI 1640 medium, then suspended in RPMI 1640 medium to which 50% of WEHI-3 culture supernatant had been added to give 1.25 x 10^6 cells/ml (IL-4) or 3.75 x 10^6 cells/ml (TNF-α ). Having added 40 µl of a test drug solution prepared as a ten-fold dilution to 320 µl/well of the cell suspension and treated the cells for 30 minutes to one hour at 37°C in 5% CO2, antigen stimulation was applied adding 40 µl of a solution of dinitrophenyl human serum albumin (Sigma; hereinafter 'DNP-HSA'; 300ng/ml) (reaction solution 400 µl/well/48 well plate, final cell concentration 1∼3 x 10^6 cells/ml, final antigen concentration 30ng/ml). The level of the cytokine in the supernatant fluid from the culture was assayed by ELISA 18 hours (IL-4) or 4 hours (TNF-α ) following stimulation with the antigen. • 5. […] The level of TNF-α in the culture supernatant fluid was determined by ELISA 18 hours after stimulating with okadaic acid. • 6. […]

[2] = tested on: TNF-α production from mouse macrophages; test: Okadaic acid-induced TNF-α production from mouse peritoneal macrophages (ELISA); details: Macrophage, okadaic acid 0.2 µM, 18 hours
Protocol: as §1, with “).” for “). Having added 40 µl of a test drug solution prepared as a ten-fold dilution to 320 µl/well of the cell suspension and treated the cells for 30 minutes to one hour at 37°C in 5% CO2, antigen stimulation was applied adding 40 µl of a solution of dinitrophenyl human serum albumin (Sigma; hereinafter 'DNP-HSA'; 300ng/ml) (reaction solution 400 µl/well/48 well plate, final cell concentration 1∼3 x 10^6 cells/ml, final antigen concentration 30ng/ml). The level of the cytokine in the supernatant fluid from the culture was assayed by ELISA 18 hours (IL-4) or 4 hours (TNF-α ) following stimulation with the antigen. • 5.”

[3] = tested on: TNF-α production from mouse BMMC; test: Antigen-induced TNF-α production from mouse BMMC (ELISA); details: 4 hours after antigen
Protocol: as §1

**Q.** With `CC(C)(C)c1ccc(C(O)CCCN2CCC(C(O)(c3ccccc3)c3ccccc3)CC2)cc1` (stereo not shown) [terfenadine] as the compound, how does the “activity on IL-4 production” value ([1]; concentrations of 0.01∼1 µM) read?
**A.** no activity

**Q.** What about the inhibition at 1 µM [2] of the same compound?
**A.** 24.6%

**Q.** And the “activity against TNF-α production” value ([3]; 0.01∼1 µM)?
**A.** no activity

**Q.** For `C[C@@H]1C[C@H]2[C@@H]3CCC4=CC(=O)C=C[C@]4(C)[C@@]3(F)[C@@H](O)C[C@]2(C)[C@@]1(O)C(=O)CO` [Dexamethasone, dexamethasone], which inhibition at 1 µM ([1]; Mus musculus, at 1 µM, DNP-HSA stimulated, anti-DNP-IgE sensitised BMMC, 18 hours) is on record?
**A.** 61.6%

**Q.** And the inhibition at 1 µM ([3]; Mus musculus, at 1 µM)?
**A.** 68.7%

**Q.** With `CN1CCC(=C2c3ccccc3CC(=O)c3sccc32)CC1` [Ketotifen, Ketotifen fumarate] as the compound, how does the inhibition at 10 µM ([1]; Mus musculus, at 10 µM, DNP-HSA stimulated, anti-DNP-IgE sensitised BMMC, 18 hours) read?
**A.** 65.6%

**Q.** What about the “activity against TNF-α production” value ([3]; 0.1∼10 µM) of the same compound?
**A.** no activity

Reference: patent publication EP0958820A1, “Use of an imidazol derivative for the manufacture of a medicament for treating auto-immunodiseases” (Sanofi-Synthélabo, priority 1998, dated 1999)
